Drawing on patent US6211214A, “Biphenyl ether oxazolines and their use as pest-control agents” (Bayer Aktiengesellschaft, priority 1995, dated 2001), this text covers chromatographic logP and log p for 57 molecules.

Where two headings read alike, the source gives them in different places.

The data set is described as follows: log p (partition coefficient octanol/water, determined experimentally from reversed phase HPLC). It is filed as physicochemical. To be noted: for chromatographic logP: reversed phase hplc. From the text: [log p=logarithm of the partition coefficient p of the substance between the solvents octanol and water, determined experimentally from reversed phase HPLC]

What is called chromatographic logP is lipophilicity estimated from chromatographic retention. Read a low chromatographic logP as lower lipophilicity. In turn, `CCON=C(C)C(C)Oc1ccc(-c2ccc(C3COC(c4c(F)cccc4F)=N3)cc2)cc1` (single isomer, unassigned) [Example 70] registered a chromatographic logP of 5.12. Same read-out and setting: in the case of `CCON=C(C)C(C)(C)Oc1ccc(-c2ccc(C3COC(c4ccccc4Cl)=N3)cc2)cc1Cl` (stereo not shown) [Example 176] it was 6.49.

Turning to `C=CCON=C(C)C(C)Oc1ccc(-c2ccc(C3COC(c4c(F)cccc4Cl)=N3)cc2)cc1` (stereo not shown) [Example 120], the chromatographic logP (A isomer) amounted to 5.7 and the chromatographic logP (B isomer) came to 5.81. In turn, `CCON=C(C)COc1ccc(-c2ccc(C3COC(c4c(F)cccc4Cl)=N3)cc2)cc1` (stereo not shown) [Example 81] had a chromatographic logP of 4.98. The same measure, in the same setting: to `CC(C#N)Oc1ccc(-c2ccc(C3COC(c4c(F)cccc4F)=N3)cc2)cc1Cl` (stereo not shown) [Example 95] belongs 4.06. As for `CC(COc1ccc(-c2ccc(C3COC(c4c(F)cccc4Cl)=N3)cc2)cc1)=NOC(C)C` (stereo not shown) [Example 124], the chromatographic logP by setting is: (A isomer) 5.78; (B isomer) 5.88. As to `C=CCON=C(C)C(C)Oc1ccc(-c2ccc(C3COC(c4ccccc4Cl)=N3)cc2)cc1` (stereo not shown) [Example 143], the chromatographic logP runs as follows: (A isomer) 5.45; (B isomer) 5.57. The molecule `CCON=C(C)C(C)Oc1ccc(-c2ccc(C3COC(c4ccccc4Cl)=N3)cc2)cc1` (single isomer, unassigned) [Example 85] registered a chromatographic logP of 5.4. Regarding `CCON=C(C)C(C)Oc1ccc(-c2ccc(C3COC(c4c(F)cccc4Cl)=N3)cc2)cc1` (stereo not shown) [Example 62], the chromatographic logP worked out at 5.31 (A isomer) and 5.42 (B isomer). On to `CCON=C(COc1ccc(-c2ccc(C3COC(c4c(F)cccc4F)=N3)cc2)cc1)c1ccc(Br)cc1` (stereo not shown) [Example 119], for which the log p reads like this: (A isomer) 6.03; (B isomer) 5.72. Consider `CCON=C(COc1ccc(-c2ccc(C3COC(c4c(F)cccc4F)=N3)cc2)cc1)c1ccc(Cl)c(C)c1` (stereo not shown) [Example 141], for which the chromatographic logP amounted to 5.93 (A isomer) and 6.23 (B isomer). `CC(=NOC(C)C)C(C)Oc1ccc(-c2ccc(C3COC(c4c(F)cccc4Cl)=N3)cc2)cc1` (stereo not shown) [Example 123]: the chromatographic logP is, setting by setting: (A isomer) 6.15; (B isomer) 6.3. For `CCON=C(C)COc1ccc(-c2ccc(C3COC(c4c(F)cccc4F)=N3)cc2)cc1` (stereo not shown) [Example 83], where the note is “B isomer”, the log p came to 5.56. The molecule also came in with a chromatographic logP (A isomer) of 5.49. In turn, `O=C(COc1ccc(-c2ccc(C3COC(c4c(F)cccc4F)=N3)cc2)cc1)C1(Cl)CC1` (stereo not shown) [Example 54] yielded a chromatographic logP of 4.04.

`CCOC(COc1ccc(-c2ccc(C3COC(c4c(F)cccc4F)=N3)cc2)cc1)OCC` (stereo not shown) [Example 43] came in with a chromatographic logP of 4.44. Molecule `CCON=C(COc1ccc(-c2ccc(C3COC(c4c(F)cccc4F)=N3)cc2)cc1)C1(Cl)CC1` (stereo not shown) [Example 57] had a chromatographic logP (A isomer) of 5.49 and a chromatographic logP (B isomer) of 4.85. On to `CON=C(C)C(C)Oc1ccc(-c2ccc(C3COC(c4c(F)cccc4F)=N3)cc2)cc1Cl` (stereo not shown) [Example 127], for which the chromatographic logP is, setting by setting: (A isomer) 5.06; (B isomer) 5.15. The matching figures for `CON=C(COc1ccc(-c2ccc(C3COC(c4c(F)cccc4F)=N3)cc2)cc1)c1cccc(Cl)c1` (stereo not shown) [Example 115]: 5.52 and 5.19.

As for `CCON=C(COc1ccc(-c2ccc(C3COC(c4c(F)cccc4F)=N3)cc2)cc1)C1CC1` (stereo not shown) [Example 67], the log p is listed as 4.72 (A isomer) and 4.61 (B isomer). For `CCON=C(CC)COc1ccc(-c2ccc(C3COC(c4c(F)cccc4F)=N3)cc2)cc1` (stereo not shown) [Example 66], the chromatographic logP (A isomer) is 4.98 and the chromatographic logP (B isomer) was 4.9. On to `CC(C)C(C#N)Oc1ccc(-c2ccc(C3COC(c4c(F)cccc4F)=N3)cc2)cc1Cl` (stereo not shown) [Example 102], for which the chromatographic logP was found to be 4.84. For `C=CCON=C(C)C(C)Oc1ccc(-c2ccc(C3COC(c4c(F)cccc4F)=N3)cc2)cc1Cl` (stereo not shown) [Example 147], the chromatographic logP is 5.49 (A isomer) and 5.58 (B isomer). The matching figures for `C=CCON=C(C)COc1ccc(-c2ccc(C3COC(c4c(F)cccc4F)=N3)cc2)cc1` (stereo not shown) [Example 89]: 4.78 and 4.72. `Cc1ccc(C(=O)COc2ccc(-c3ccc(C4COC(c5c(F)cccc5F)=N4)cc3)cc2)cc1C` (stereo not shown) [Example 148] gave a chromatographic logP of 4.62. `CON=C(COc1ccc(-c2ccc(C3COC(c4c(F)cccc4F)=N3)cc2)cc1)c1ccc(Cl)cc1` (stereo not shown) [Example 130] yielded a chromatographic logP (A isomer) of 5.27 and a chromatographic logP (B isomer) of 5.54.

`CON=C(COc1ccc(-c2ccc(C3COC(c4c(F)cccc4F)=N3)cc2)cc1)c1ccccc1` (stereo not shown) [Example 27] gave a chromatographic logP (A isomer) of 4.74. Regarding `CON=C(C)C(C)(C)Oc1ccc(-c2ccc(C3COC(c4ccccc4Cl)=N3)cc2)cc1Cl` (stereo not shown) [Example 175], the chromatographic logP is 6.06. `CON=C(COc1ccc(-c2ccc(C3COC(c4ccccc4Cl)=N3)cc2)cc1)c1ccccc1` (stereo not shown) [Example 52]: the chromatographic logP was 5.4.

`CCON=C(C)C(C)(C)Oc1ccc(-c2ccc(C3COC(c4c(F)cccc4F)=N3)cc2)cc1Cl` (stereo not shown) [Example 171] gave a chromatographic logP of 5.05.

Take `CCON=C(COc1ccc(-c2ccc(C3COC(c4c(F)cccc4F)=N3)cc2)cc1)c1cccc(C(F)(F)F)c1` (stereo not shown) [Example 122]: the chromatographic logP worked out at 6.18 (A isomer) and 5.87 (B isomer). The matching figures for `C=CCON=C(C)C(C)Oc1ccc(-c2ccc(C3COC(c4c(F)cccc4F)=N3)cc2)cc1` (stereo not shown) [Example 88]: 5.04 and 5.13. In turn, `CC(C)C(C)(C)C(=O)COc1ccc(-c2ccc(C3COC(c4c(F)cccc4F)=N3)cc2)cc1` (stereo not shown) [Example 68] returned a chromatographic logP of 4.55. With `CC(=NO)C(C)(C)Oc1ccc(-c2ccc(C3COC(c4c(F)cccc4F)=N3)cc2)cc1` (stereo not shown) [Example 167], the chromatographic logP (A isomer) worked out at 3.82 and the chromatographic logP (B isomer) is 3.39. As for `CC(=O)C(C)Oc1ccc(-c2ccc(C3COC(c4c(F)cccc4F)=N3)cc2)cc1Cl` (stereo not shown) [Example 101], the chromatographic logP was 4.15. The same measure, in the same setting: in the case of `CC1(COc2ccc(-c3ccc(C4COC(c5c(F)cccc5F)=N4)cc3)cc2)OCCO1` (stereo not shown) [Example 98] it was 3.77. `CCON=C(COc1ccc(-c2ccc(C3COC(c4c(F)cccc4F)=N3)cc2)cc1)c1ccc(C(F)F)cc1` (stereo not shown) [Example 139]: the chromatographic logP (A isomer) was 5.07 and the chromatographic logP (B isomer) is 5.31. `CCON=C(C)COc1ccc(-c2ccc(C3COC(c4c(F)cccc4F)=N3)cc2)cc1` (stereo not shown) [Example 25] had a chromatographic logP (B isomer) of 4.76. For `CON=C(c1ccccc1F)C(C)Oc1ccc(-c2ccc(C3COC(c4c(F)cccc4F)=N3)cc2)cc1` (stereo not shown) [Example 108], the chromatographic logP amounted to 5.01.

Molecule `CC(=O)C(C)(C)Oc1ccc(-c2ccc(C3COC(c4ccccc4Cl)=N3)cc2)cc1` (stereo not shown) [Example 152] displayed a chromatographic logP of 4.56. Same read-out and setting: in the case of `CC(C)(C(=O)COc1ccc(-c2ccc(C3COC(c4c(F)cccc4F)=N3)cc2)cc1)C(Cl)Cl` (stereo not shown) [Example 71] it was 4.55.

Turning to `CON=C(COc1ccc(-c2ccc(C3COC(c4c(F)cccc4F)=N3)cc2)cc1)c1ccc(C)c(C)c1` (stereo not shown) [Example 189], the chromatographic logP (A isomer) came out at 5.58 and the chromatographic logP (B isomer) worked out at 5.29.

As for `CCON=C(C)C(C)Oc1ccc(-c2ccc(C3COC(c4c(F)cccc4F)=N3)cc2)cc1` (stereo not shown) [Example 48], the chromatographic logP (A isomer) was 5.02 and the chromatographic logP (B isomer) was 5.13. Consider `CON=C(C)C(C)Oc1ccc(-c2ccc(C3COC(c4c(F)cccc4F)=N3)cc2)cc1` (stereo not shown) [Example 23], for which the chromatographic logP is 4.62 (A isomer) and 4.71 (B isomer).

In turn, `CCOC(=O)C(CC)Oc1ccc(-c2ccc(C3COC(c4c(F)cccc4F)=N3)cc2)cc1` (stereo not shown) [Example 11] returned a chromatographic logP of 4.53. The molecule `C=CCN(CC=C)C(=O)COc1ccc(-c2ccc(C3COC(c4c(F)cccc4F)=N3)cc2)cc1` (stereo not shown) [Example 47] displayed a chromatographic logP of 3.76.

`CC(=NOC(C)C)C(C)Oc1ccc(-c2ccc(C3COC(c4c(F)cccc4F)=N3)cc2)cc1` (stereo not shown) [Example 69] returned a chromatographic logP of 4.47. Molecule `CON=C(C)C(C)(C)Oc1ccc(-c2ccc(C3COC(c4c(F)cccc4F)=N3)cc2)cc1` (stereo not shown) [Example 100] came in with a chromatographic logP of 5.14. In the case of `CCON=C(C)COc1ccc(-c2ccc(C3COC(c4c(F)cccc4F)=N3)cc2)cc1Cl` (stereo not shown) [Example 87], the chromatographic logP is, setting by setting: (A isomer) 5.39; (B isomer) 5.19.

`O=C(COc1ccc(-c2ccc(C3COC(c4c(F)cccc4F)=N3)cc2)cc1)c1ccc(OC(F)F)cc1` (stereo not shown) [Example 114] had a chromatographic logP of 4.16.

As for `CCON=C(COc1ccc(-c2ccc(C3COC(c4c(F)cccc4F)=N3)cc2)cc1)c1ccc(C)cc1` (stereo not shown) [Example 134], the chromatographic logP was 5.42 (A isomer) and 5.71 (B isomer). For `CCON=C(C)C(C)(C)Oc1ccc(-c2ccc(C3COC(c4c(F)cccc4Cl)=N3)cc2)cc1` (stereo not shown) [Example 161], the chromatographic logP worked out at 5.88. In turn, `O=C(COc1ccc(-c2ccc(C3COC(c4ccccc4Cl)=N3)cc2)cc1)c1ccccc1` (stereo not shown) [Example 49] had a chromatographic logP of 4.38. For `CCON=C(COc1ccc(-c2ccc(C3COC(c4c(F)cccc4F)=N3)cc2)cc1)c1ccc(OC(F)(F)C(F)F)cc1` (stereo not shown) [Example 158], the chromatographic logP turned out to be 5.59 (A isomer) and 5.35 (B isomer). As to `CCON=C(COc1ccc(-c2ccc(C3COC(c4c(F)cccc4F)=N3)cc2)cc1)c1ccc(Br)cc1` (stereo not shown) [Example 118], the chromatographic logP is, setting by setting: (A isomer) 5.65; (B isomer) 5.57.

Take `CCOC(=O)C(C)Oc1ccc(-c2ccc(C3COC(c4c(F)cccc4F)=N3)cc2)cc1` (stereo not shown) [Example 12]: the log p was determined as 3.80.

Take `CCON=C(COc1ccc(-c2ccc(C3COC(c4c(F)cccc4F)=N3)cc2)cc1)c1ccc(C(F)(F)F)cc1` (stereo not shown) [Example 112]: the chromatographic logP was found to be 5.87 (A isomer) and 5.57 (B isomer). `CON=C(C)C(C)(C)Oc1ccc(-c2ccc(C3COC(c4c(F)cccc4F)=N3)cc2)cc1Cl` (stereo not shown) [Example 170] yielded a chromatographic logP of 5.61.
